Laboratory results reported in article PMC12517324, “Hyperagonism of a Vitamin D Receptor Agonist/Histone Deacetylase Inhibitor Hybrid Molecule” (Journal of Medicinal Chemistry, 2025).

Tested on: B16–F10 cells
Test: RNaseq gene expression profiling
Format: cell-based, mouse
Conditions: RNAseq
Description: AC-340 superinduced CYP24A1 expression in all cell lines tested, and ZG-126 appeared to be a hyperagonist in SK-MEL-28 cells. […] AC-340 treatment produced 3 times more differentially expressed genes (DEGs) than AM-193, with ZG-126 producing an intermediate number (Figure A). […] The varying effects of each treatment on the numbers of regulated genes and the fold changes observed are reflected in plots of log-fold changes and volcano plots (Figure S3B).
A quality control was performed before sequencing in paired-end at 50 M reads by Illumina NovaSeq 6000 S4 PE100. After sequencing, the FASTQ files were sent to us and all downstream analysis were performed on Galaxy (Galaxy (usegalaxy.org)). First, trimmomatic tool was used to remove the adapters from the reads. Then, using the alignment tool, HISAT2, the reads were mapped to the mouse genome. In the next step, the counted reads were annotated and finally the list of differentially expressed genes (DEGs) for each treatment was obtained using the preinstalled R package called Limma.

CCC(CC)(c1ccc(OCCCCCC(=O)NO)cc1)c1ccc(OCC(O)C(C)(C)C)c(C)n1 (stereo not shown) [AM-193]
logFC Acat2 (gene Acat2, AM193-significant genes): -0.7924 | logFC Agt (gene Agt, AM193-significant genes): -0.9491 | logFC Aimp2 (gene Aimp2, AM193-significant genes): -0.7904 | logFC Alyref (gene Alyref, AM193-significant genes): -0.7893 | logFC Anln (gene Anln, AM193-significant genes): -0.751 | logFC Aurkb (gene Aurkb, AM193-significant genes): -0.7442 | logFC B3galt5 (gene B3galt5, AM193-significant genes): -0.7772 | logFC Bhlhe40 (gene Bhlhe40, AM193-significant genes): -0.9608 | logFC Birc5 (gene Birc5, AM193-significant genes): -0.9013 | logFC Bnip1 (gene Bnip1, AM193-significant genes): -0.7195 | logFC Bora (gene Bora, AM193-significant genes): -0.8854 | logFC Brca1 (gene Brca1, AM193-significant genes): -0.7501 | logFC Bsn (gene Bsn, AM193-significant genes): -0.8525 | logFC Cad (gene Cad, AM193-significant genes): -1.103 | logFC Calr (gene Calr, AM193-significant genes): -0.7283 | logFC Ccl5 (gene Ccl5, AM193-significant genes): -0.8403 | logFC Ccna2 (gene Ccna2, AM193-significant genes): -0.7214 | logFC Ccnb1 (gene Ccnb1, AM193-significant genes): -0.7431 | logFC Ccnf (gene Ccnf, AM193-significant genes): -0.8441 | logFC Cd3eap (gene Cd3eap, AM193-significant genes): -0.7422 | logFC Cdc6 (gene Cdc6, AM193-significant genes): -0.8307 | logFC Cdc20 (gene Cdc20, AM193-significant genes): -0.7899 | logFC Cdc25c (gene Cdc25c, AM193-significant genes): -0.8576 | logFC Cdk1 (gene Cdk1, AM193-significant genes): -0.7282 | logFC Cdk2 (gene Cdk2, AM193-significant genes): -0.7948 | logFC Cenpa (gene Cenpa, AM193-significant genes): -0.7639 | logFC Cenpn (gene Cenpn, AM193-significant genes): -0.717 | logFC Cep152 (gene Cep152, AM193-significant genes): -0.7072 | logFC Cse1l (gene Cse1l, AM193-significant genes): -0.7192 | logFC Dctd (gene Dctd, AM193-significant genes): -1.041 | logFC Ddah1 (gene Ddah1, AM193-significant genes): -1.0571 | logFC Dhcr24 (gene Dhcr24, AM193-significant genes): -1.0227 | logFC Dis3 (gene Dis3, AM193-significant genes): -0.7516 | logFC Dkc1 (gene Dkc1, AM193-significant genes): -0.7246 | logFC Dnph1 (gene Dnph1, AM193-significant genes): -0.7927 | logFC E2f8 (gene E2f8, AM193-significant genes): -0.7725 | logFC Egln1 (gene Egln1, AM193-significant genes): -1.099 | logFC Elovl6 (gene Elovl6, AM193-significant genes): -0.8086 | logFC Eme1 (gene Eme1, AM193-significant genes): -0.7703 | logFC Eps8 (gene Eps8, AM193-significant genes): -0.9363 | logFC Espl1 (gene Espl1, AM193-significant genes): -0.8155 | logFC Exosc6 (gene Exosc6, AM193-significant genes): -0.7177 | logFC Exosc8 (gene Exosc8, AM193-significant genes): -0.7524 | logFC Fam162a (gene Fam162a, AM193-significant genes): -1.049 | logFC Fam83d (gene Fam83d, AM193-significant genes): -0.8732 | logFC Fasn (gene Fasn, AM193-significant genes): -0.7289 | logFC Fdps (gene Fdps, AM193-significant genes): -0.7443 | logFC Fkbp11 (gene Fkbp11, AM193-significant genes): -1.012 | logFC Foxm1 (gene Foxm1, AM193-significant genes): -0.7084 | logFC Fubp1 (gene Fubp1, AM193-significant genes): -0.7875 | logFC Fut11 (gene Fut11, AM193-significant genes): -0.7657 | logFC Gamt (gene Gamt, AM193-significant genes): -0.9245 | logFC Gar1 (gene Gar1, AM193-significant genes): -0.799 | logFC Gcat (gene Gcat, AM193-significant genes): -1.125 | logFC Gemin4 (gene Gemin4, AM193-significant genes): -0.7731 | logFC Gins1 (gene Gins1, AM193-significant genes): -0.7214 | logFC Gjb2 (gene Gjb2, AM193-significant genes): -0.8099 | logFC Gm973 (gene Gm973, AM193-significant genes): -0.7844 | logFC Grhpr (gene Grhpr, AM193-significant genes): -0.8764 | logFC Grwd1 (gene Grwd1, AM193-significant genes): -0.9726 | logFC Gys1 (gene Gys1, AM193-significant genes): -0.7213 | logFC H1f3 (gene H1f3, AM193-significant genes): -0.9967 | logFC H1f6 (gene H1f6, AM193-significant genes): -1.042 | logFC H2ac6 (gene H2ac6, AM193-significant genes): -0.96 | logFC H2ac8 (gene H2ac8, AM193-significant genes): -0.9016 | logFC H2ac11 (gene H2ac11, AM193-significant genes): -0.8838 | logFC H2ac25 (gene H2ac25, AM193-significant genes): -0.7891 | logFC H2ax (gene H2ax, AM193-significant genes): -0.7149 | logFC H2bc6 (gene H2bc6, AM193-significant genes): -0.7735 | logFC H2bc8 (gene H2bc8, AM193-significant genes): -0.9803 | logFC H2bc9 (gene H2bc9, AM193-significant genes): -1.042 | logFC H2bc11 (gene H2bc11, AM193-significant genes): -0.7444 | logFC H2bc18 (gene H2bc18, AM193-significant genes): -0.8059 | logFC H2bu1-ps (gene H2bu1-ps, AM193-significant genes): -0.9542 | logFC H3c1 (gene H3c1, AM193-significant genes): -0.892 | logFC H3c6 (gene H3c6, AM193-significant genes): -0.7599 | logFC H3c7 (gene H3c7, AM193-significant genes): -0.9595 | logFC H4c1 (gene H4c1, AM193-significant genes): -0.7797 | logFC H4c2 (gene H4c2, AM193-significant genes): -0.7954 | logFC Higd1a (gene Higd1a, AM193-significant genes): -0.903 | logFC Hirip3 (gene Hirip3, AM193-significant genes): -0.7302 | logFC Hmga1 (gene Hmga1, AM193-significant genes): -1.033 | logFC Hmga1b (gene Hmga1b, AM193-significant genes): -1.051 | logFC Hmgb2 (gene Hmgb2, AM193-significant genes): -0.8226 | logFC Hmgcs1 (gene Hmgcs1, AM193-significant genes): -0.7755 | logFC Hmgn2 (gene Hmgn2, AM193-significant genes): -0.7752 | logFC Hpse (gene Hpse, AM193-significant genes): -0.8433 | logFC Hrob (gene Hrob, AM193-significant genes): -0.8536 | logFC Hspa5 (gene Hspa5, AM193-significant genes): -0.7657 | logFC Idi1 (gene Idi1, AM193-significant genes): -1.099 | logFC Ier3 (gene Ier3, AM193-significant genes): -0.7432 | logFC Impa2 (gene Impa2, AM193-significant genes): -0.8388 | logFC Impdh2-ps (gene Impdh2-ps, AM193-significant genes): -0.7159 | logFC Incenp (gene Incenp, AM193-significant genes): -0.7108 | logFC Ip6k3 (gene Ip6k3, AM193-significant genes): -0.7379 | logFC Irgm1 (gene Irgm1, AM193-significant genes): -0.7387 | logFC Jmjd6 (gene Jmjd6, AM193-significant genes): -0.8319 | logFC Jpt2 (gene Jpt2, AM193-significant genes): -0.8326 | logFC Kif2c (gene Kif2c, AM193-significant genes): -0.7884 | logFC Kif14 (gene Kif14, AM193-significant genes): -0.8043 | logFC Kif20b (gene Kif20b, AM193-significant genes): -0.7216 | logFC Kif22 (gene Kif22, AM193-significant genes): -0.8428 | logFC Kif23 (gene Kif23, AM193-significant genes): -0.7776 | logFC Ldha (gene Ldha, AM193-significant genes): -0.9079 | logFC Ldlr (gene Ldlr, AM193-significant genes): -0.7666 | logFC Lig1 (gene Lig1, AM193-significant genes): -0.7368 | logFC Lmnb1 (gene Lmnb1, AM193-significant genes): -0.9349 | logFC Loxl2 (gene Loxl2, AM193-significant genes): -1.106 | logFC Lpcat1 (gene Lpcat1, AM193-significant genes): -1.098 | logFC Lpgat1 (gene Lpgat1, AM193-significant genes): -0.8431 | logFC Lrp8 (gene Lrp8, AM193-significant genes): -0.9511 | logFC Lyar (gene Lyar, AM193-significant genes): -0.724 | logFC Man2a1 (gene Man2a1, AM193-significant genes): -0.7409 | logFC Mcm10 (gene Mcm10, AM193-significant genes): -0.7922 | logFC Mest (gene Mest, AM193-significant genes): -1.125 | logFC Met (gene Met, AM193-significant genes): -1.057 | logFC Mitf (gene Mitf, AM193-significant genes): -0.8034 | logFC Mki67 (gene Mki67, AM193-significant genes): -0.7294 | logFC Mxd3 (gene Mxd3, AM193-significant genes): -0.9949 | logFC Mybl2 (gene Mybl2, AM193-significant genes): -1.058 | logFC Naa10 (gene Naa10, AM193-significant genes): -0.8589 | logFC Nampt (gene Nampt, AM193-significant genes): -0.7338 | logFC Nasp (gene Nasp, AM193-significant genes): -0.9086 | logFC Nbn (gene Nbn, AM193-significant genes): -0.7109 | logFC Ndc80 (gene Ndc80, AM193-significant genes): -0.7825 | logFC Net1 (gene Net1, AM193-significant genes): -0.7159 | logFC Nhp2 (gene Nhp2, AM193-significant genes): -0.7487 | logFC Nhsl1 (gene Nhsl1, AM193-significant genes): -0.7298 | logFC Nmi (gene Nmi, AM193-significant genes): -0.8028 | logFC Noc2l (gene Noc2l, AM193-significant genes): -0.884 | logFC Nr4a1 (gene Nr4a1, AM193-significant genes): -0.9791 | logFC Nsun2 (gene Nsun2, AM193-significant genes): -0.766 | logFC P4ha2 (gene P4ha2, AM193-significant genes): -0.8086 | logFC Pbk (gene Pbk, AM193-significant genes): -0.8895 | logFC Pclaf (gene Pclaf, AM193-significant genes): -0.7086 | logFC Pfkl (gene Pfkl, AM193-significant genes): -1.068 | logFC Pfkp (gene Pfkp, AM193-significant genes): -0.83 | logFC Pgf (gene Pgf, AM193-significant genes): -1.056 | logFC Pgm1 (gene Pgm1, AM193-significant genes): -0.9062 | logFC Pgp (gene Pgp, AM193-significant genes): -0.8532 | logFC Pif1 (gene Pif1, AM193-significant genes): -0.8212 | logFC Pimreg (gene Pimreg, AM193-significant genes): -0.8591 | logFC Plekha2 (gene Plekha2, AM193-significant genes): -0.8787 | logFC Plk1 (gene Plk1, AM193-significant genes): -0.7788 | logFC Plpp5 (gene Plpp5, AM193-significant genes): -0.8001 | logFC Pmf1 (gene Pmf1, AM193-significant genes): -0.796 | logFC Pnn (gene Pnn, AM193-significant genes): -0.8904 | logFC Pold1 (gene Pold1, AM193-significant genes): -0.8466 | logFC Pold2 (gene Pold2, AM193-significant genes): -0.855 | logFC Prkcz (gene Prkcz, AM193-significant genes): -1.145 | logFC Psmb10 (gene Psmb10, AM193-significant genes): -0.8103 | logFC Ptpn6 (gene Ptpn6, AM193-significant genes): -0.8579 | logFC Rcc1 (gene Rcc1, AM193-significant genes): -0.8765 | logFC Rcc1l (gene Rcc1l, AM193-significant genes): -0.7067
